Results published in patent EP4043444A1, “SUBSTITUTED ISOXAZOLINE DERIVATIVES” (priority 2021, dated 2022).
Like-named read-outs stand apart in the source and are kept apart here.

Columns and labels:
Format in all cases: in vivo
[1] = system: Boll weevil (Anthonomus grandis); experiment: Boll weevil control, 96-well microtiter plates with insect diet and eggs; conditions: Anthonomus grandis, 120 h, read-out: mortality (Egg and larval mortality)
Method: For evaluating control of boll weevil, the test unit consisted of 96-well-microtiter plates containing an insect diet and 5-10 A. grandis eggs.
The compounds were formulated using a solution containing 75% v/v water and 25% v/v DMSO. Different concentrations of formulated compounds were sprayed onto the insect diet at 5µl, using a custom-built micro atomizer, at two replications.
After application, microtiter plates were incubated at about 25 + 1°C and about 75 + 5 % relative humidity for 5 days. Egg and larval mortality were then visually assessed.

[2] = system: Yellow Fever Mosquito (Aedes aegypti); experiment: whole plant or invertebrate; conditions: 48 h, 2 days, in comparison with untreated controls, read-out: mortality (Larval mortality)
Method: For evaluating control of Yellow Fever Mosquito the test unit consisted of 96-well-microtiter plates containing 200µl of tap water per well and 5-15 freshly hatched A. aegypti larvae. The active compounds were formulated using a solution containing 75% (v/v) water and 25% (v/v) DMSO. Different concentrations of formulated compounds or mixtures were sprayed onto the insect diet at 2.5µl, using a custom-built micro atomizer, at two replications.
After application, microtiter plates were incubated at 28 + 1°C, 80 + 5 % RH for 2 days. Larval mortality was then visually assessed.

[3] = system: Green Peach Aphid (Myzus persicae) (mixed life stages); experiment: Green Peach Aphid control through systemic means, artificial diet under artificial membrane; conditions: Myzus persicae, 72 h, read-out: mortality (Aphid mortality)
From the text: For evaluating control of Green Peach Aphid through systemic means the test unit consisted of 96-well-microtiter plates containing liquid artificial diet under an artificial membrane. The compounds were formulated using a solution containing 75% v/v water and 25% v/v DMSO. Different concentrations of formulated compounds were pipetted into the aphid diet, using a custom-built pipette, at two replications. After application, 5 - 8 adult aphids were placed on the artificial membrane inside the microtiter plate wells. The aphids were then allowed to suck on the treated aphid diet and incubated at about 23 + 1°C and about 50 + 5 % relative humidity for 3 days. Aphid mortality and fecundity was then visually assessed.

[4] = system: Tobacco Budworm (Heliothis virescens); experiment: Tobacco Budworm control, 96-well microtiter plates with insect diet and eggs; conditions: Heliothis virescens, 120 h, read-out: mortality (Egg and larval mortality)
Method: For evaluating control of Tobacco Budworm, the test unit consisted of 96-well-microtiter plates containing an insect diet and 15-25 H. virescens eggs. The compounds were formulated using a solution containing 75% v/v water and 25% v/v DMSO. Different concentrations of formulated compounds were sprayed onto the insect diet at 10µl, using a custom-built micro atomizer, at two replications. After application, microtiter plates were incubated at about 28 + 1°C and about 80 + 5 % relative humidity for 5 days. Egg and larval mortality was then visually assessed.

[5] = system: Greenhouse Whitefly (Trialeurodes vaporarirorum); experiment: Greenhouse Whitefly control, 96-well microtiter plates with eggplant leaf disk and eggs; conditions: foliar, 144 h, read-out: mortality (Mortality of hatched crawlers)
Method: For evaluating control of Greenhouse Whitefly, the test unit consisted of 96-well-microtiter plates containing a leaf disk of eggplant leaf disk with Whitefly eggs. The compounds or mixtures were formulated using a solution containing 75% water and 25% DMSO. Different concentrations of formulated were sprayed onto the […] at 2.5µl, using a custom-built micro atomizer, at two replications. After application, microtiter plates were incubated at 23 + 1°C, 65 + 5% RH for 6 days. Mortality of hatched crawlers was then visually assessed.

[6] = 2500ppm, sprayed onto insect diet, 5 days, in comparison with untreated controls

Measured: mortality at 2500 ppm

O=C(NC1C[S+]([O-])C1)c1cc(NC2=NOC(c3cc(Cl)c(F)c(Cl)c3)(C(F)(F)F)C2)ccc1Cl (stereo not drawn) [I-96, 2-chloro-5-[[5-(3,5-dichloro-4-fluoro-phenyl)-5-(trifluoromethyl)-4H-isoxazol-3-yl]amino]-N-(1-oxothietan-3-yl)benzamide]
≥ 75%: [1] | [2] | [3] | [4]

O=C(CC(F)(F)F)Nc1c(F)ccc(NC(=O)c2cc(NC3=NOC(c4cc(Cl)cc(Cl)c4)(C(F)(F)F)C3)ccc2Cl)c1F (stereo not drawn) [I-9]
≥ 75%: [1] | [2] | [3] | [4]; [6]

O=C(Nc1ccc(F)cc1F)c1cc(NC2=NOC(c3cc(Cl)c(F)c(Cl)c3)(C(F)(F)F)C2)ccc1Cl (stereo not drawn) [I-14]
≥ 75%: [1] | [2] | [3] | [4]; [6]

N#CC1(NC(=O)c2cc(NC3=NOC(c4cc(Cl)cc(Cl)c4)(C(F)(F)F)C3)ccc2OC(F)(F)F)CC1 (stereo not drawn) [I-150]
≥ 75%: [1] | [2] | [3] | [4]; [6]

O=C(NC1CC1)c1cc(NC2=NOC(c3cc(Cl)cc(Cl)c3)(C(F)(F)F)C2)ccc1OC(F)(F)F (stereo not drawn) [I-172]
≥ 75%: [1] | [2] | [3] | [4]; [6]

O=C(Nc1ccc(F)c(NC(=O)C(F)F)c1F)c1cc(NC2=NOC(c3cc(Cl)cc(Cl)c3)(C(F)(F)F)C2)ccc1Cl (stereo not drawn) [I-5, 2-chloro-5-[[5-(3,5-dichlorophenyl)-5-(trifluoromethyl)-4H-isoxazol-3-yl]amino]-N-[3-[(2,2-difluoroacetyl)amino]-2,4-difluoro-phenyl]benzamide]
≥ 75%: [1] | [2] | [3] | [4]; [6]

O=C(Nc1ccc(F)cc1F)c1cc(NC2=NOC(c3ccc(F)c(C(F)(F)F)c3)(C(F)(F)F)C2)ccc1Cl (stereo not drawn) [I-16]
≥ 75%: [1] | [2] | [3] | [4]; [6]

O=C(Nc1ccc(F)cc1F)c1cc(NC2=NOC(c3cccc(C(F)(F)F)c3)(C(F)(F)F)C2)ccc1Cl (stereo not drawn) [I-20, 2-chloro-N-(2,4-difluorophenyl)-5-[[5-(trifluoromethyl)-5-[3-(trifluoromethyl)phenyl]-4H-isoxazol-3-yl]amino]benzamide]
≥ 75%: [1] | [3] | [4]; [6] | [5]

O=C(Nc1ccc(F)cc1F)c1cc(NC2=NOC(c3cc(Cl)cc(Cl)c3)(C(F)(F)F)C2)ccc1Cl (stereo not drawn) [I-2]
≥ 75%: [1] | [2] | [3] | [4]; [6]

Cc1ccc(NC2=NOC(c3cc(Cl)cc(Cl)c3)(C(F)(F)F)C2)cc1C(=O)NC1CC1 (stereo not drawn) [I-169]
≥ 75%: [1] | [2] | [3] | [4]; [6]

O=C(Nc1ccc(F)cc1F)c1cc(NC2=NOC(c3cc(Cl)cc(Cl)c3)(C(F)(F)F)C2)ccc1C(F)(F)F (stereo not drawn) [I-158]
≥ 75%: [1] | [2] | [3] | [4]; [6]

N#CC1(NC(=O)c2cc(NC3=NOC(c4cc(Cl)cc(Cl)c4)(C(F)(F)F)C3)ccc2Cl)CC1 (stereo not drawn) [I-3]
≥ 75%: [1] | [2] | [3] | [4]; [6]
